Test results reported in US8895585B2, “Nicotinamide derivative or salt thereof” (FUJIFILM Corporation, priority 2010, dated 2014).

Each compound was assayed against T1, glutathione S-transferase (GST)-fused full-length human Syk protein (Homo sapiens, UniProt P43405) (assay: Syk enzyme assay). Settings: Syk enzyme assay, Test Example 1; read-out: IC50 of Syk-inhibitory activity.
T1 construct: (GST)-fused full-length human Syk protein; GST (glutathione S-transferase); purchased Carna Biosciences
Type: biochemical
In short: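 Baculovirus-expressed enzyme (1.2 ng) was preincubated with compound in HEPES pH 7.0/MgCl2/DTT buffer, 2 min shaking then 13 min at room temperature. Biotin-EDPDYEWPSA-NH2 (0.4 μM final) and ATP (27 μM final) were added for 40 min at room temperature. EDTA stop, streptavidin-XL/PT66-K TR-FRET at 615/665 nm gave IC50.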

| IC50 | SMILES |
| --- | --- |
| 50 to 100 nM | CC[C@H](Nc1nc(Nc2ccc3ncccc3c2)c(C(N)=O)cc1F)[C@H](C)N [Example 006-179, 6-(((2S,3S)-2-aminopentan-3-yl)amino)-5-fluoro-2-((quinolin-6-yl)amino)nicotinamide] |
| 100 to 1000 nM | C[C@H](N)[C@H](C)Nc1nc(Nc2ccc3ncccc3c2)c(C(N)=O)cc1F [Example 006-181, 6-(((2S,3S)-3-aminobutan-2-yl)amino)-5-fluoro-2-((quinolin-6-yl)amino)nicotinamide] |
| 10 to 50 nM | CC(C)C[C@H](CN)Nc1nc(Nc2ccc(N3CCOCC3)nc2)c(C(N)=O)cc1F [Example 006-191, (R)-6-((1-amino-4-methylpentan-2-yl)amino)-5-fluoro-2-((6-morpholinopyridin-3-yl)amino)nicotinamide] |
| 50 to 100 nM | C[C@H](N)[C@H](C)Nc1nc(Nc2ccc3ncccc3c2)c(C(N)=O)cc1F [Example 006-202, 6-(((2S,3S)-3-aminobutan-2-yl)amino)-5-fluoro-2-((quinolin-6-yl)amino)nicotinamide] |
| 100 to 1000 nM | CC(C)C[C@@H](CN)Nc1nc(Nc2ccc3ncccc3c2)c(C(N)=O)cc1F [Example 006-203, (S)-6-((1-amino-4-methylpentan-2-yl)amino)-5-fluoro-2-((quinolin-6-yl)amino)nicotinamide] |
| < 10 nM | CCCC[C@@H](Nc1nc(Nc2cnc3cc(OC)ccc3c2)c(C(N)=O)cc1F)[C@H](C)N [Example 006-205, 6-(((2S,3R)-2-aminoheptan-3-yl)amino)-5-fluoro-2-((7-methoxyquinolin-3-yl)amino)nicotinamide] |
| 10 to 50 nM | C[C@H](Nc1nc(Nc2ccc3ncccc3c2)c(C(N)=O)cc1F)[C@@H](C)N [Example 006-225, 6-(((2S,3R)-3-aminobutan-2-yl)amino)-5-fluoro-2-((quinolin-6-yl)amino)nicotinamide] |
| 10 to 50 nM | CC(C)C[C@H](CN)Nc1nc(Nc2cccc3cccnc23)c(C(N)=O)cc1F [Example 006-230, (R)-6-((1-amino-4-methylpentan-2-yl)amino)-5-fluoro-2-((quinolin-8-yl)amino)nicotinamide] |
| < 10 nM | CC(C)C[C@H](CN)Nc1nc(Nc2cncc3ccccc23)c(C(N)=O)cc1F [Example 006-231] |
| 10 to 50 nM | CC(C)C[C@H](CN)Nc1nc(Nc2cncc(-c3ccccc3)c2)c(C(N)=O)cc1F [Example 006-235, (R)-6-((1-amino-4-methylpentan-2-yl)amino)-5-fluoro-2-((5-phenylpyridin-3-yl)amino)nicotinamide] |
| 10 to 50 nM | CCC[C@@H](Nc1nc(Nc2cccc3cccnc23)c(C(N)=O)cc1F)[C@H](C)N [Example 006-243, 6-(((2S,3R)-2-aminohexan-3-yl)amino)-5-fluoro-2-((quinolin-8-yl)amino)nicotinamide] |
| 10 to 50 nM | CCC[C@@H](Nc1nc(Nc2ccc(N3CCOCC3)nc2)c(C(N)=O)cc1F)[C@H](C)N [Example 006-246, 6-(((2S,3R)-2-aminohexan-3-yl)amino)-5-fluoro-2-((6-mopholinopyridin-3-yl)amino)nicotinamide] |
| 10 to 50 nM | CC[C@@H](Nc1nc(Nc2ccnc(-n3nccn3)c2)c(C(N)=O)cc1F)[C@H](C)N [Example 006-254, 2-((2-(2H-1,2,3-triazol-2-yl)pyridin-4-yl)amino)-6-(((2S,3R)-2-aminopentan-3-yl)amino)-5-fluoronicotinamide] |
| 100 to 1000 nM | CC[C@@H](Nc1nc(Nc2cnc(OC)c(-n3nccn3)c2)c(C(N)=O)cc1F)[C@H](C)N [Example 006-273, 6-(((2S,3R)-2-aminopentan-3-yl)amino)-5-fluoro-2-((6-methoxy-5-(2H-1,2,3-triazol-2-yl)pyridin-3-yl)amino)nicotinamide] |
| < 10 nM | CC[C@@H](Nc1nc(Nc2cncc(-c3cc(OC)ccc3F)c2)c(C(N)=O)cc1F)[C@H](C)N [Example 006-280, 6-(((2S,3R)-2-aminopentan-3-yl)amino)-5-fluoro-2-((5-(2-fluoro-5-methoxyphenyl)pyridin-3-yl)amino)nicotinamide] |
| 10 to 50 nM | NC[C@@H](CC1CC1)Nc1nc(Nc2cncc(-c3ccccc3)c2)c(C(N)=O)cc1F [Example 006-283, (R)-6-((1-amino-3-cyclopropylpropan-2-yl)amino)-5-fluoro-2-((5-phenylpyridin-3-yl)amino)nicotinamide] |
| < 10 nM | CCCC[C@H](CN)Nc1nc(Nc2ccc3c(cnn3C)c2)c(C(N)=O)cc1F [Example 006-292, (R)-6-((1-aminohexan-2-yl)amino)-5-fluoro-2-((1-methyl-1H-indazol-5-yl)amino)nicotinamide] |
| 10 to 50 nM | NCC(CCC(F)(F)F)Nc1nc(Nc2cncc(-c3ccccc3)c2)c(C(N)=O)cc1F (centres unmarked) [Example 006-305, 6-((1-amino-5,5,5-trifluoropentan-2-yl)amino)-5-fluoro-2-((5-phenylpyridin-3-yl)amino)nicotinamide] |
| 10 to 50 nM | COc1ccc(-c2cncc(Nc3nc(N[C@@H](CN)CC(C)C)c(F)cc3C(N)=O)c2)c(F)c1 [Example 006-319, (R)-6-((1-amino-4-methylpentan-2-yl)amino)-5-fluoro-2-((5-(2-fluoro-4-methoxyphenyl)pyridin-3-yl)amino)nicotinamide] |
| 50 to 100 nM | COc1ccc(F)c(-c2cncc(Nc3nc(N[C@@H](CN)CC(C)C)c(F)cc3C(N)=O)c2)c1 [Example 006-320, (R)-6-((1-amino-4-methylpentan-2-yl)amino)-5-fluoro-2-((5-(2-fluoro-5-methoxyphenyl)pyridin-3-yl)amino)nicotinamide] |
| < 10 nM | COc1cccc(-c2cc(Nc3nc(N[C@@H](CN)CC(C)C)c(F)cc3C(N)=O)ccn2)c1 [Example 006-325, (R)-6-((1-amino-4-methylpentan-2-yl)amino)-5-fluoro-2-((2-(3-methoxyphenyl)pyridin-4-yl)amino)nicotinamide] |
| < 10 nM | COc1ccc(-c2cc(Nc3nc(N[C@@H](CN)CC(C)C)c(F)cc3C(N)=O)ccn2)cc1 [Example 006-326, (R)-6-((1-amino-4-methylpentan-2-yl)amino)-5-fluoro-2-((2-(4-methoxyphenyl)pyridin-4-yl)amino)nicotinamide] |
| < 10 nM | COc1cccc(-c2cc(Nc3nc(N[C@@H](CN)CC(C)C)c(F)cc3C(N)=O)ccn2)c1F [Example 006-327, (R)-6-((1-amino-4-methylpentan-2-yl)amino)-5-fluoro-2-((2-(2-fluoro-3-methoxyphenyl)pyridin-4-yl)amino)nicotinamide] |
| < 10 nM | COc1ccc(-c2cc(Nc3nc(N[C@@H](CN)CC(C)C)c(F)cc3C(N)=O)ccn2)c(F)c1 [Example 006-328, (R)-6-((1-amino-4-methylpentan-2-yl)amino)-5-fluoro-2-((2-(2-fluoro-4-methoxyphenyl)pyridin-4-yl)amino)nicotinamide] |
| 10 to 50 nM | NC[C@H](Nc1nc(Nc2cncc(-c3ccccc3)c2)c(C(N)=O)cc1F)C1CC1 [Example 006-337, (R)-6-((2-amino-1-cyclopropylethyl)amino)-5-fluoro-2-((5-phenylpyridin-3-yl)amino)nicotinamide] |
| 10 to 50 nM | CCCC[C@H](CN)Nc1nc(Nc2cccc3c2cnn3C)c(C(N)=O)cc1F [Example 006-339, (R)-6-((1-aminohexan-2-yl)amino)-5-fluoro-2-((1-methyl-1H-indazol-4-yl)amino)nicotinamide] |
